Test system: MV-4-11 cells
Test: Gene expression microarray analysis (Affymetrix PrimeView) and GSEA
Format: cell-based, human
Design: RFU PODN (11730768_x_at) / Fold change /veh PODN (11730768_x_at) / RFU LINC00158 (11744669_a_at) / Fold change /veh LINC00158 (11744669_a_at) / RFU DUSP10 (11751237_a_at) / Fold change /veh DUSP10 (11751237_a_at) / RFU ID3 (11757404_x_at) / Fold change /veh ID3 (11757404_x_at) / RFU PLEKHG5 (11737974_s_at) / Fold change /veh PLEKHG5 (11737974_s_at) / RFU LRRC4B (11730491_at) / Fold change /veh LRRC4B (11730491_at) / RFU GIMAP4 (11747438_a_at) / Fold change /veh GIMAP4 (11747438_a_at) / RFU KRT8 (11758183_x_at) / Fold change /veh KRT8 (11758183_x_at) / RFU CNN1 (11734310_a_at) / Fold change /veh CNN1 (11734310_a_at) / RFU VPS37D (11726825_at) / Fold change /veh VPS37D (11726825_at) / RFU C10orf10 (11716522_x_at) / Fold change /veh C10orf10 (11716522_x_at) / RFU KIR2DL2 /// KIR2DL4 /// KIR2DL5A /// KIR2DL5B /// KIR2DS1 /// KIR2DS2 /// KIR2DS3 /// KIR2DS4 /// KIR3DL3 /// KIR3DL3 /// KIR3DS1 (11738374_at) / Fold change /veh KIR2DL2 /// KIR2DL4 /// KIR2DL5A /// KIR2DL5B /// KIR2DS1 /// KIR2DS2 /// KIR2DS3 /// KIR2DS4 /// KIR3DL3 /// KIR3DL3 /// KIR3DS1 (11738374_at) / RFU C1QL1 (11718748_at) / Fold change /veh C1QL1 (11718748_at) / RFU TMPRSS4 (11747572_a_at) / Fold change /veh TMPRSS4 (11747572_a_at) / RFU HAMP (11756126_x_at) / Fold change /veh HAMP (11756126_x_at) / RFU RNFT2 (11725882_a_at) / Fold change /veh RNFT2 (11725882_a_at) / RFU NR4A2 (11747474_a_at) / Fold change /veh NR4A2 (11747474_a_at) / RFU ABCC12 (11746883_a_at) / Fold change /veh ABCC12 (11746883_a_at) / RFU TMEM136 (11760407_x_at) / Fold change /veh TMEM136 (11760407_x_at) / RFU CLDN22 /// WWC2 (11732394_at) / Fold change /veh CLDN22 /// WWC2 (11732394_at) / RFU HLA-DPB1 (11760878_x_at) / Fold change /veh HLA-DPB1 (11760878_x_at) / RFU SPINT1 (11716480_a_at) / Fold change /veh SPINT1 (11716480_a_at) / RFU GAP43 (11754022_s_at) / Fold change /veh GAP43 (11754022_s_at) / RFU A4GNT (11735810_at) / Fold change /veh A4GNT (11735810_at) / RFU PRB3 (11715151_x_at) / Fold change /veh PRB3 (11715151_x_at) / RFU TUBB4B (11761932_at) / Fold change /veh TUBB4B (11761932_at) / RFU CAPN14 (11732068_a_at) / Fold change /veh CAPN14 (11732068_a_at) / RFU TMCC2 (11721928_a_at) / Fold change /veh TMCC2 (11721928_a_at) / RFU IRGQ (11745062_a_at) / Fold change /veh IRGQ (11745062_a_at) / RFU FAM174B (11720279_a_at) / Fold change /veh FAM174B (11720279_a_at) / RFU TMPRSS4 (11748680_a_at) / Fold change /veh TMPRSS4 (11748680_a_at) / RFU FAM212B (11763350_a_at) / Fold change /veh FAM212B (11763350_a_at) / RFU PLEKHG5 (11743358_a_at) / Fold change /veh PLEKHG5 (11743358_a_at) / RFU ZSCAN30 (11745921_a_at) / Fold change /veh ZSCAN30 (11745921_a_at) / RFU CMKLR1 (11741424_a_at) / Fold change /veh CMKLR1 (11741424_a_at) / RFU LOC101060620 /// MAPK8IP1 (11723275_at) / Fold change /veh LOC101060620 /// MAPK8IP1 (11723275_at) / RFU SPTSSB (11747773_x_at) / Fold change /veh SPTSSB (11747773_x_at) / RFU PRSS12 (11739890_at) / Fold change /veh PRSS12 (11739890_at) / RFU BIN1 (11741810_x_at) / Fold change /veh BIN1 (11741810_x_at) / RFU WNT11 (11732464_a_at) / Fold change /veh WNT11 (11732464_a_at) / RFU C10orf10 (11716521_a_at) / Fold change /veh C10orf10 (11716521_a_at) / RFU C5orf56 (11738089_at) / Fold change /veh C5orf56 (11738089_at) / RFU CYB561 (11721691_x_at) / Fold change /veh CYB561 (11721691_x_at) / RFU ANKRD19P (11752326_a_at) / Fold change /veh ANKRD19P (11752326_a_at) / RFU OR2T12 /// OR2T33 /// OR2T8 (11738714_s_at) / Fold change /veh OR2T12 /// OR2T33 /// OR2T8 (11738714_s_at) / RFU VCAN (11748164_a_at) / Fold change /veh VCAN (11748164_a_at) / RFU JSRP1 (11732532_at) / Fold change /veh JSRP1 (11732532_at) / RFU KRTAP10-11 (11738290_x_at) / Fold change /veh KRTAP10-11 (11738290_x_at) / RFU MYO3A (11730013_a_at) / Fold change /veh MYO3A (11730013_a_at) / RFU EBF3 (11725865_a_at) / Fold change /veh EBF3 (11725865_a_at) / RFU CAMK2N1 (11719241_x_at) / Fold change /veh CAMK2N1 (11719241_x_at) / RFU C5orf56 (11738088_a_at) / Fold change /veh C5orf56 (11738088_a_at) / RFU OLFML3 (11715873_a_at) / Fold change /veh OLFML3 (11715873_a_at) / RFU LOC100653217 /// NTM (11731650_a_at) / Fold change /veh LOC100653217 /// NTM (11731650_a_at) / RFU MAPK11 (11762145_a_at) / Fold change /veh MAPK11 (11762145_a_at) / RFU FIZ1 (11724087_x_at) / Fold change /veh FIZ1 (11724087_x_at) / RFU OASL (11726364_x_at) / Fold change /veh OASL (11726364_x_at) / RFU SOX15 (11748057_x_at) / Fold change /veh SOX15 (11748057_x_at) / RFU CD79A (11719716_a_at) / Fold change /veh CD79A (11719716_a_at) / RFU HIST1H1D (11736915_at) / Fold change /veh HIST1H1D (11736915_at) / RFU CASKIN2 (11723855_a_at) / Fold change /veh CASKIN2 (11723855_a_at) / RFU LOC730098 (11760151_x_at) / Fold change /veh LOC730098 (11760151_x_at) / RFU OR4N2 (11742367_at) / Fold change /veh OR4N2 (11742367_at) / RFU PRRT2 (11749266_a_at) / Fold change /veh PRRT2 (11749266_a_at) / RFU SNX32 (11753110_a_at) / Fold change /veh SNX32 (11753110_a_at) / RFU CDHR5 (11726645_a_at) / Fold change /veh CDHR5 (11726645_a_at) / RFU RCAN1 (11760418_a_at) / Fold change /veh RCAN1 (11760418_a_at) / RFU FAM167A (11723789_a_at) / Fold change /veh FAM167A (11723789_a_at) / RFU FAM26E (11764081_at) / Fold change /veh FAM26E (11764081_at) / RFU ISYNA1 (11749810_s_at) / Fold change /veh ISYNA1 (11749810_s_at) / RFU ACY1 (11761880_at) / Fold change /veh ACY1 (11761880_at) / RFU 11764098_at / Fold change /veh 11764098_at / RFU SAMD14 (11745864_x_at) / Fold change /veh SAMD14 (11745864_x_at) / RFU NPB (11741838_a_at) / Fold change /veh NPB (11741838_a_at) / RFU TMPRSS6 (11731388_a_at) / Fold change /veh TMPRSS6 (11731388_a_at) / RFU KRTAP10-2 (11738614_at) / Fold change /veh KRTAP10-2 (11738614_at) / RFU ARHGAP8 /// PRR5-ARHGAP8 (11727945_x_at) / Fold change /veh ARHGAP8 /// PRR5-ARHGAP8 (11727945_x_at) / RFU KRTAP5-7 /// NADSYN1 (11734609_at) / Fold change /veh KRTAP5-7 /// NADSYN1 (11734609_at) / RFU RASL12 (11751679_a_at) / Fold change /veh RASL12 (11751679_a_at) / RFU CDKN2B (11736163_a_at) / Fold change /veh CDKN2B (11736163_a_at) / RFU PRF1 (11729649_at) / Fold change /veh PRF1 (11729649_at) / RFU, ZNF638 /// ZNF638-IT1 / Fold change vs veh, ZNF638 /// ZNF638-IT1 / RFU, PANK3 / Fold change vs veh, PANK3 / RFU, SH3YL1 / Fold change vs veh, SH3YL1 / RFU, ZEB2 / Fold change vs veh, ZEB2 / RFU, NRIP1 / Fold change vs veh, NRIP1 / RFU, PTTG1IP / Fold change vs veh, PTTG1IP / RFU, CAPN2 / Fold change vs veh, CAPN2 / RFU, MED14 / Fold change vs veh, MED14 / RFU, SNORA58 / Fold change vs veh, SNORA58 / RFU, C1orf63 / Fold change vs veh, C1orf63 / RFU, LRRFIP1 / Fold change vs veh, LRRFIP1 / RFU, NDUFAF7 / Fold change vs veh, NDUFAF7 / RFU, SLC12A2 / Fold change vs veh, SLC12A2 / RFU, IBTK / Fold change vs veh, IBTK / RFU, ESF1 / Fold change vs veh, ESF1 / Fold change vs veh, TMEM50B / RFU, TAOK1 / Fold change vs veh, TAOK1 / RFU, ACBD3 / Fold change vs veh, ACBD3 / RFU, TMA16 / Fold change vs veh, TMA16 / RFU, RWDD3 / Fold change vs veh, RWDD3 / RFU, BCAT1 / Fold change vs veh, BCAT1 / RFU, EDEM3 / Fold change vs veh, EDEM3 / RFU, TMEM33 / Fold change vs veh, TMEM33 / RFU, WDR75 / Fold change vs veh, WDR75 / RFU, AHCTF1 / Fold change vs veh, AHCTF1 / RFU, TFRC / Fold change vs veh, TFRC / RFU, ZDHHC17 / Fold change vs veh, ZDHHC17 / RFU, NOM1 / Fold change vs veh, NOM1 / RFU, ARL8B / Fold change vs veh, ARL8B / RFU, ZBTB11 / Fold change vs veh, ZBTB11 / RFU, TAMM41 / Fold change vs veh, TAMM41 / RFU, KIAA1704 /// LOC100996395 / Fold change vs veh, KIAA1704 /// LOC100996395 / RFU, ING1 / Fold change vs veh, ING1 / RFU, TRMT61B / Fold change vs veh, TRMT61B / RFU, FUBP3 / Fold change vs veh, FUBP3 / RFU, TP53 / Fold change vs veh, TP53 / RFU, TNKS2 / Fold change vs veh, TNKS2 / RFU, ZFP14 / Fold change vs veh, ZFP14 / RFU, ACTR2 / Fold change vs veh, ACTR2 / RFU, PPP3R1 / Fold change vs veh, PPP3R1 / RFU, PIK3R1 / Fold change vs veh, PIK3R1 / RFU, HNRNPA1 / Fold change vs veh, HNRNPA1 / RFU, RNF170 / Fold change vs veh, RNF170 / RFU, ZNF28 / Fold change vs veh, ZNF28 / RFU, RNGTT / Fold change vs veh, RNGTT / RFU, OGT / Fold change vs veh, OGT / RFU, BRD1 / Fold change vs veh, BRD1 / RFU, MARS / Fold change vs veh, MARS / RFU, ZNF655 / Fold change vs veh, ZNF655 / RFU, FAHD1 / Fold change vs veh, FAHD1 / RFU, BDP1 / Fold change vs veh, BDP1 / RFU, LRRCC1 / Fold change vs veh, LRRCC1 / RFU, ARID1A / Fold change vs veh, ARID1A / RFU, ZNF146 / Fold change vs veh, ZNF146 / RFU, ZNF330 / Fold change vs veh, ZNF330 / RFU, GPN3 / Fold change vs veh, GPN3 / RFU, C9orf123 / Fold change vs veh, C9orf123 / RFU, N4BP2L2 / Fold change vs veh, N4BP2L2 / RFU, ARFIP1 / Fold change vs veh, ARFIP1 / RFU, FAM179B / Fold change vs veh, FAM179B / RFU, BCL10 / Fold change vs veh, BCL10 / RFU, UHRF1BP1L / Fold change vs veh, UHRF1BP1L / RFU, BET1 / Fold change vs veh, BET1 / RFU, CNOT2 / Fold change vs veh, CNOT2 / RFU, ZNF268 / Fold change vs veh, ZNF268 / Fold change vs veh, ZNF507 / RFU, DGCR2 / Fold change vs veh, DGCR2 / RFU, WDSUB1 / Fold change vs veh, WDSUB1 / Fold change vs veh, HSP90B1 /// MIR3652 / RFU, ADSS / Fold change vs veh, ADSS / RFU, GK / Fold change vs veh, GK / RFU, ZNF148 / Fold change vs veh, ZNF148 / RFU, TAF9 / Fold change vs veh, TAF9 / RFU, SLC1A5 / Fold change vs veh, SLC1A5 / RFU, SLMO2 / Fold change vs veh, SLMO2 / RFU, ABCC4 / Fold change vs veh, ABCC4 / RFU, LOC101060439 /// RAP1B / Fold change vs veh, LOC101060439 /// RAP1B / RFU, RFX7 / Fold change vs veh, RFX7 / RFU, GTPBP10 / Fold change vs veh, GTPBP10 / RFU, CNEP1R1 / Fold change vs veh, CNEP1R1 / RFU, BIVM-ERCC5 /// ERCC5 / Fold change vs veh, BIVM-ERCC5 /// ERCC5 / RFU, ILF3 / Fold change vs veh, ILF3 / RFU 11762660_at / Fold change /veh 11762660_at / RFU VCAN (11757783_s_at) / Fold change /veh VCAN (11757783_s_at) / RFU DDX43 (11728927_at) / Fold change /veh DDX43 (11728927_at) / RFU KRT8 (11758188_x_at) / Fold change /veh KRT8 (11758188_x_at) / RFU NKD1 (11759106_at) / Fold change /veh NKD1 (11759106_at) / RFU SRD5A1 (11742802_a_at) / Fold change /veh SRD5A1 (11742802_a_at) / RFU TPSAB1 /// TPSB2 (11721975_s_at) / Fold change /veh TPSAB1 /// TPSB2 (11721975_s_at) / RFU GSTM3 (11746129_a_at) / Fold change /veh GSTM3 (11746129_a_at) / RFU IL23R (11737362_x_at) / Fold change /veh IL23R (11737362_x_at) / RFU TMEM51 (11727254_a_at) / Fold change /veh TMEM51 (11727254_a_at) / RFU PIWIL2 (11732686_x_at) / Fold change /veh PIWIL2 (11732686_x_at) / RFU ORM1 (11744905_x_at) / Fold change /veh ORM1 (11744905_x_at) / RFU CCDC152 (11743942_at) / Fold change /veh CCDC152 (11743942_at) / RFU ECM1 (11717891_a_at) / Fold change /veh ECM1 (11717891_a_at) / RFU IL23R (11748794_a_at) / Fold change /veh IL23R (11748794_a_at) / RFU TNFAIP8L3 (11732012_x_at) / Fold change /veh TNFAIP8L3 (11732012_x_at) / RFU MBOAT4 (11741988_at) / Fold change /veh MBOAT4 (11741988_at) / RFU 11764193_at / Fold change /veh 11764193_at / RFU TMEM53 (11763286_at) / Fold change /veh TMEM53 (11763286_at) / RFU MAGEB2 (11727129_at) / Fold change /veh MAGEB2 (11727129_at) / RFU TMEM200A (11744735_a_at) / Fold change /veh TMEM200A (11744735_a_at) / RFU CCDC152 (11751479_a_at) / Fold change /veh CCDC152 (11751479_a_at) / RFU FAM211A (11726209_a_at) / Fold change /veh FAM211A (11726209_a_at) / RFU RGS16 (11746705_a_at) / Fold change /veh RGS16 (11746705_a_at) / RFU VCAN (11755009_s_at) / Fold change /veh VCAN (11755009_s_at) / RFU RHOB (11743442_s_at) / Fold change /veh RHOB (11743442_s_at) / RFU RGS16 (11720943_a_at) / Fold change /veh RGS16 (11720943_a_at) / RFU RGS16 (11720944_at) / Fold change /veh RGS16 (11720944_at) / RFU, VPS4B / Fold change vs veh, VPS4B / RFU, CREB1 / Fold change vs veh, CREB1 / RFU, DNAJC13 / Fold change vs veh, DNAJC13 / RFU, GNAQ / Fold change vs veh, GNAQ / RFU, CDK5R1 / Fold change vs veh, CDK5R1 / RFU, ZRANB3 / Fold change vs veh, ZRANB3 / RFU, CUL4A / Fold change vs veh, CUL4A / RFU, CCNY / Fold change vs veh, CCNY / RFU, UFL1 / Fold change vs veh, UFL1 / RFU, COG3 / Fold change vs veh, COG3 / RFU, DIAPH2 / Fold change vs veh, DIAPH2 / RFU, SKA2 / Fold change vs veh, SKA2 / RFU, AFF3 / Fold change vs veh, AFF3 / RFU, LMF1 / Fold change vs veh, LMF1 / RFU, IPO11 / Fold change vs veh, IPO11 / RFU, DFFB / Fold change vs veh, DFFB / RFU, FOXP1 / Fold change vs veh, FOXP1 / RFU, CARD8 / Fold change vs veh, CARD8 / RFU, STRN3 / Fold change vs veh, STRN3 / RFU, ADK / Fold change vs veh, ADK / RFU, RASSF2 / Fold change vs veh, RASSF2 / RFU, WIPF1 / Fold change vs veh, WIPF1 / RFU, LARP1B / Fold change vs veh, LARP1B / RFU, RASA1 / Fold change vs veh, RASA1 / RFU, RB1 / Fold change vs veh, RB1 / RFU, PPFIA1 / Fold change vs veh, PPFIA1 / RFU, MAT2A / Fold change vs veh, MAT2A / RFU, CCT5 / Fold change vs veh, CCT5 / RFU, WDR92 / Fold change vs veh, WDR92 / RFU, CUX1 / Fold change vs veh, CUX1 / RFU, TTC7A / Fold change vs veh, TTC7A / RFU, TMEM135 / Fold change vs veh, TMEM135 / RFU, DEPTOR / Fold change vs veh, DEPTOR / RFU, CPM / Fold change vs veh, CPM / RFU, DNAJB6 / Fold change vs veh, DNAJB6 / RFU, CACNA2D3 / Fold change vs veh, CACNA2D3 / RFU, DTX4 / Fold change vs veh, DTX4 / RFU, TFCP2 / Fold change vs veh, TFCP2 / RFU, GMCL1 /// GMCL1P1 / Fold change vs veh, GMCL1 /// GMCL1P1 / RFU, AEBP2 / Fold change vs veh, AEBP2 / RFU, SNHG1 /// SNORD22 /// SNORD25 /// SNORD26 /// SNORD27 /// SNORD28 /// SNORD29 /// SNORD31 / Fold change vs veh, SNHG1 /// SNORD22 /// SNORD25 /// SNORD26 /// SNORD27 /// SNORD28 /// SNORD29 /// SNORD31 / Fold change (Aza/veh), C12orf56 (ProbeSet 11735607_a_at) / Fold change (ACY-1035/veh), C12orf56 (ProbeSet 11735607_a_at) / Fold change (Aza/veh), FGFR1OP (ProbeSet 11751329_s_at) / Fold change (ACY-1035/veh), FGFR1OP (ProbeSet 11751329_s_at) / Fold change (Aza/veh), VPS36 (ProbeSet 11739960_a_at) / Fold change (ACY-1035/veh), VPS36 (ProbeSet 11739960_a_at) / RFU SYPL1 (11715823_x_at) / Fold change /veh SYPL1 (11715823_x_at) / RFU IGFBP7 (11715501_s_at) / Fold change /veh IGFBP7 (11715501_s_at) / RFU REEP3 (11722064_at) / Fold change /veh REEP3 (11722064_at) / RFU IGLL1 (11728026_x_at) / Fold change /veh IGLL1 (11728026_x_at): dose or concentration left out as unconfirmed
Conditions: ProbeSet 11730252_s_at; LIST B

Nc1ncn([C@@H]2O[C@H](CO)[C@@H](O)[C@H]2O)c(=O)n1 [azacitidine]
Fold change vs veh, AHCTF1: 0.94

Source: publication PMC5218480 (PLoS ONE, 2017)
